From patent US7256178B2, “Physiologically active substances” (priority 2002, dated 2007)

Columns and labels:
[1] = Physicochemical properties: solubility
[2] = test system: WiDr human colon tumors; experiment: Solid cancer growth inhibitory action, WiDr cells subcutaneously implanted in nude mice; assay type: in vivo, nude mouse; conditions: 15th day, control group as 100%
Protocol: (§1) In order to examine the solid cancer growth inhibitory activity of the compound of the formula (I) in vivo, WiDr human colon cancer cells were subcutaneously implanted into the body of each nude mouse. […] The control group consisted of ten mice, and the 6-deoxy 11107D derivative-administration group consisted of five mice. The derivative was intravenously injected at 0.625 mg/kg/day, 1.25 mg/kg/day, 2.5 mg/kg/day, 5 mg/kg/day, or 10 mg/kg/day to each mouse of the administration group, and a vehicle was administered to each mouse of the control group.
(§2) The tumor volumes on the 15th day were measured to determine the relative tumor weight ratio (T/C %), based on the tumor weight of each mouse of the control group as 100%. The body weights on the day of the start of administration, 5th day, 8th day, 12th day and 15th (or 16th) day were measured to examine the relative body weight variations in the case of administering the representative compounds, based on the body weights on the day of the start of administration as 100%. The minimum relative body weight ratios, which are the relative body weight ratios on the day when the body weights were lightest, are shown in Table 3.

[3] = Stability in an aqueous solution (HPLC); assay type: physicochemical; conditions: for Remaining percentage (%): pH 7 Britton-Robinson buffer solution, 25° C., 24 hours
Protocol: The compound of the formula (I) was dissolved in DMSO at a concentration of 10 to 20 mM, and the solution was diluted with a pH 7 Britton-Robinson buffer solution to about 500-fold. This solution was used as a sample solution, and was incubated at 25° C. for 24 hours.
The sample solution before and after the incubation was analyzed using high-performance liquid chromatography to obtain a chromatogram. The percentage of the compound remaining in the sample solution after the incubation was determined from the peak area of the chromatogram.

[4] = test system: VEGF promoter; experiment: VEGF transcription inhibitory activity (VEGF-PLAP reporter, U251/1-8 cells under hypoxic conditions); assay type: cell-based; conditions: Homo sapiens, U-251, hypoxic (2% O2) incubator 18 hours, n=2 to 3
Source text: In order to prepare a reporter system in which transcription from a VEGF promoter is reflected, a VEGF promoter sequence was cloned and inserted into a placental alkaline phosphatase (PLAP) vector to construct a reporter vector.
In order to obtain a promoter region of human VEGF, a VEGF genome was cloned from a phage library. Based on VEGF cDNA (GenBank accession number: X62568), a PCR primer in the sequence described as SEQ ID NO: 1 or SEQ ID NO: 2 was designed to conduct PCR, thereby obtaining about a fragment of 340 bp. A human genomic phage library (human genomic library, Clontech) was screened using this fragment as a probe to obtain pUC18-VEGFA containing a VEGF5′ franking region of about 5.4 kb. This pUC18-VEGFA was cut with Kpn I/Nhe I to obtain a VEGF promoter region of about 2.3 kb, and the region was inserted into the multicloning site Kpn I/Nhe I of the placental alkaline phosphatase (PLAP) reporter vector (Goto et al., Mol. Pharmacol., 49, 860-873, 1996) to construct a VEGF-PLAP vector.
The above-described VEGF-PLAP vector was introduced into U251 cells cultured in a Dulbecco's modified Eagle's medium containing 10% fetal bovine serum (DMEM, manufactured by Sigma Co.), and cultured in the presence of 1 mg/mL G418 (Merck & Co., Inc.) to establish a G418-resistant stable clone (U251/1-8 cells).
As in a report by Minchenko et al. (Cell. Mol. Biol. Res., 40, 35-39, 1994), U251/1-8 cells were confirmed to be a reporter system which secretes PLAP into a culture medium under hypoxic conditions (2% O2 incubator), and in which transcription from a VEGF promoter is reflected. A compound inhibiting VEGF production induced by hypoxic stimulation was screened using this clone.
In order to eliminate influence of the alkali phosphatase in the serum, the U251/1-8 cells were washed with a sufficient amount of PBS (Phosphate buffered saline) twice, and treated at 65° C. for 20 minutes to inactivate the alkaline phosphatase in the serum. 4×10^4 cells/180 μL per well of the cells diluted in the DMEM culture medium containing 10% of this serum were plated in a 96-well plate.
The cells were cultured in a CO2 incubator (5% CO2) at 37° C. overnight, and 20 μL of the above-described culture solution containing the test compound at threefold serial dilutions was added. Subsequently, the cells were cultured in hypoxic (2% O2) incubator for 18 hours. To measure the PLAP activity in the culture supernatant liquid, 10 μL of the culture supernatant liquid was added to 50 μL of a 0.28 M Na2CO3—NaHCO3 buffer solution (pH 10.0, 8.0 mM MgSO4), and finally 50 μL of an alkaline phosphatase substrate (Lumistain, Genome Science Laboratories Co., Ltd.) was added thereto. After the reaction for one hour, chemiluminescence was detected using a microplate reader (PerkinElmer) to measure the PLAP activity as the alkaline phosphatase activity. The PLAP activity under normoxic conditions was defined as 0%, the PLAP activity of the cells when treated under hypoxic conditions was defined as 100%, and the concentration for inhibiting 50% of the PLAP activity was defined as the IC50 value of PLAP. The IC50 values of the 6-deoxy 11107D derivatives shown in examples were determined (n=2 to 3).

[5] = Body weight reduction (acute toxicity) in the WiDr nude mouse test; assay type: in vivo; conditions: nude mice, day when body weights were lightest, relative to day of start of administration
Protocol: as §1, §2

[6] = test system: WiDr human colon cancer cells; experiment: Action of inhibiting proliferation of WiDr human colon cancer cells (MTT); assay type: cell-based; conditions: 72 h, three days, n=2 to 3, read-out: WiDr human colon cancer cell proliferation inhibitory activity (IC50: nM)
Protocol: 2×10^3 cells/well of WiDr human colon cancer cells cultured in a Dulbecco's modified Eagle's medium containing 10% fetal bovine serum, penicillin (100 units/mL) and streptomycin (100 μg/mL) (DMEM, manufactured by Sigma Co.) were plated in a 96-well plate. The cells were cultured in a CO2 incubator overnight, and 20 μL of the above-described culture solution containing the test compound at threefold serial dilutions was added for culturing the cells. After three days, 50 μL of a 3.3 mg/mL MTT solution was added, and the cells were further cultured for one hour. Then, formazan generated by reduction using living cells was extracted with 100 μL of DMSO to measure the absorbance (A540/A660), which was used as an index of the number of living cells.
The concentration for inhibiting 50% of proliferation of WiDr human colon cancer cells (IC50 value) of the compound of the formula (I) was determined (n=2 to 3).

[7] = test system: L-1210 mouse leukemia cells; conditions: RPM-1640 culture medium; cited from earlier work
[8] = test system: P388 mouse leukemia cells; conditions: RPM-1640 culture medium; cited from earlier work
[9] = test system: HL-60 human leukemia cells; conditions: RPM-1640 culture medium; cited from earlier work
[10] = test system: P388 mouse leukemia cells; conditions: cited from earlier work

CCC(O)C(C)C1OC1CC(C)/C=C/C=C(\C)C1OC(=O)CC(O)CCC(C)C(OC(C)=O)/C=C/C1C (stereo not shown) [6-deoxy 11107B]
Solubility in organic solvents ([1]; dimethyl sulfoxide, pyridine, methanol, acetone): soluble in dimethyl sulfoxide, pyridine, methanol, and acetone | Solubility in water ([1]; water): poorly soluble in water

CCC(O)C(C)C1OC1CC(C)(O)/C=C/C=C(\C)C1OC(=O)CC(O)CCC(C)C(OC(=O)N2CCCN(CC)CC2)/C=C/C1C (stereo not shown) [Compound 43, (8E,12E,14E)-7-((4-ethylhomopiperazin-1-yl)carbonyl)oxy-3,16,21-trihydroxy-6,10,12,16,20-pentamethyl-18,19-epoxytricosa-8,12,14-trien-11-olide]
WiDr human colon tumor growth inhibitory activity T/C(%) ([2]; 1.25 mg/kg/day intravenously): 9% | Remaining percentage (%) [3]: 95.8% | IC50 [4]: 2.3 nM | Minimum relative body weight ratio ([5]; 1.25 mg/kg/day intravenously): 0.83 | IC50 [6]: 0.5 nM

CCC(O)C(C)C1OC1CC(C)(O)/C=C/C=C(\C)C1OC(=O)CC(O)CCC(C)C(OC(=O)N2C[C@@H]3C[C@H]2CN3C)/C=C/C1C (stereo partly drawn) [Compound 55, (8E,12E,14E)-3,16,21-trihydroxy-6,10,12,16,20-pentamethyl-7-(((1S,4S)-5-methyl-2,5-diazabicyclo[2.2.1]heptan-2-yl)carbonyl)oxy-18,19-epoxytricosa-8,12,14-trien-11-olide]
WiDr human colon tumor growth inhibitory activity T/C(%) ([2]; 0.625 mg/kg/day intravenously): 11% | Remaining percentage (%) [3]: 95.7% | IC50 [4]: 1.1 nM | Minimum relative body weight ratio ([5]; 0.625 mg/kg/day intravenously): 0.80 | IC50 [6]: 0.6 nM

CCC(OC)C(C)C1OC1C(O)C(C)/C=C/C=C(\C)C1OC(=O)CC(O)CCC(C)(O)C(OC(C)=O)/C=C/C1C (stereo not shown) [FD-895]
Cytotoxic activity in vitro [7]: has cytotoxic activity | Stability in an aqueous solution (in words) [3]: instable in an aqueous solution | Remaining percentage (%) [3]: 83.0% | Remaining percentage (%) ([3]; listed as FD895): 83% | Cytotoxic activity in vitro [8]: has cytotoxic activity | Cytotoxic activity in vitro [9]: has cytotoxic activity | Antitumor activity in vivo [10]: did not show antitumor activity
